Assay results reported in PMC9205905, “Core and rod structures of a thermophilic cyanobacterial light-harvesting phycobilisome” (Nature Communications, 2022).

Key:
[1] = molecular target: T1, CpcA (phycocyanin alpha-subunit) (Thermostichus vulcanus, UniProt Q9AM02); test: cryo-EM structure, […] Å; format: binding; details: covalent thioether to Cys84 of CpcA
T1 construct: native phycocyanin rod dissociated from intact phycobilisomes; two PC hexamers with linkers CpcC, CpcD, CpcG; with C-phycocyanin beta subunit

[2] = molecular target: T2, CpcB (phycocyanin beta-subunit) (Thermostichus vulcanus, UniProt Q71RW8); test: cryo-EM structure, […] Å; format: binding; details: covalent thioether to Cys84 and Cys155 of CpcB
T2 construct: native phycocyanin rod dissociated from intact phycobilisomes; two PC hexamers with linkers CpcC, CpcD, CpcG; with C-phycocyanin alpha subunit

## CC=C1C(=Cc2[nH]c(C=C3N=C(C=C4NC(=O)C(CC)=C4C)C(C)=C3CCC(=O)O)c(CCC(=O)O)c2C)NC(=O)[C@@H]1C [phycocyanobilin]
[1]
  cryo-EM structure, 4.2 Å: Arrangement of chromophores in the PC rod
[2]
  cryo-EM structure, 4.2 Å: Arrangement of chromophores in the PC rod
